From patent US20100324086A1, “COMPOUNDS AND METHODS” (Novasaid AB, priority 2008, published 2010)

Biological target: T1, recombinant, membrane-bound mPGES-1 (Homo sapiens, UniProt O14684)
T1 sequence (O14684 1-152): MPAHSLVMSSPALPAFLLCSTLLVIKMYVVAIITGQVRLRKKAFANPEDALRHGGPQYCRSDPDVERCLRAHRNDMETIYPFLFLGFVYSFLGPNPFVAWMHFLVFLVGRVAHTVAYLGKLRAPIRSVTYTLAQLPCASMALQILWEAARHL
Test: Thiobarbituric acid assay (TBA-MDA assay), inhibition of mPGES-1
Type: biochemical
Conditions: remaining PGH2 measured at 535 nm
From the text: Malondialdehyde is a product of lipid peroxidation and reacts with thiobarbituric acid forming a red product that absorbs at 535 nm (W. G. Niehaus, Jr and B. Samuelsson, Eur. J. Biochem 6, 126 (1968). The extinction coefficient of the TBA-MDA conjugate is 1.56×10^5 M^−1 cm^−1 (E. D. Wills. Biochem. J. 113, 315 (1969).
The method used for detection of inhibition of mPGES-1 is based on the detection of the amount of remaining PGH2. This method was described more than 20 years ago by Basevich et al (Bioorg. Khim. 1983, 9(5), 658-665.
The assay used was a modified variant and used citric acid instead of the TCA-TBA-HCl reagent described in the original assay. In this assay recombinant, membrane-bound mPGES-1 was incubated with PGH2. The reaction was stopped by adding citric acid with a final pH of 3 and a large excess of FeCl2 (20 mM) to convert any remaining PGH2 into MDA and […]. TBA reagent was finally added (0.67%) and the samples were heated at 80° C. for 30 min. The absorbance of the conjugate was measured at 535 nm.
The product of mPGES-1 (PGE2) was not measured directly in this assay, but rather the remaining substrate (PGH2) indirectly by adding FeCl2 that converts PGH2 into […] and 12-HHT. As a positive control a known mPGES-1 inhibitor, MK-886, was used and the new inhibitors were compared with the inhibition of MK-886 (% of MK-886 inhibition).

Question: For CN(C)c1ccccc1CNC(=O)c1cccc(NC(=O)c2ccccc2C(F)(F)F)c1 [Compound 145, N-(2-Dimethylamino-benzyl)-3-(2-trifluoromethyl-benzoylamino)-benzamide], which IC50 is on record?
Answer: 470 nM

Question: How did the IC50 turn out when O=C(NCc1cccc2c1OCCO2)c1cccc(NC(=O)c2ccccc2C(F)(F)F)c1 [Compound 148, N-(2,3-dihydro-benzo[1,4]dioxin-5-ylmethyl)-3-(2-trifluoromethyl-benzoylamino)-benzamide] was run?
Answer: 990 nM

Question: For O=C(NC(c1ccccc1)c1ccccc1)c1cccc(NC(=O)c2ccccc2Cl)c1 [Compound 6, 3-(2-Chloro-benzoylamino)-N-(diphenylyl-methyl)-benzamide], which IC50 is on record?
Answer: 300 nM

Question: For Cc1ccccc1C(=O)Nc1cccc(C(=O)NC2CCCCCC2)c1 [Compound 57, N-(3-Cycloheptylcarbamoyl-phenyl)-2-methylbenzamide], which IC50 is on record?
Answer: 390 nM

Question: How did the IC50 turn out when O=C(Nc1ccc2ccccc2n1)c1cccc(NC(=O)c2ccccc2-c2cccs2)c1 [Compound 49, 3-(2-Thiophene-2-yl-benzoylamino)-N-quinolin-2-yl-benzamide] was run?
Answer: 1200 nM

Question: With O=C(NCc1ccccc1Cl)c1cccc(NC(=O)c2ccccc2C(F)(F)F)c1 [Compound 143, N-(2-Chloro-benzyl)-3-(2-trifluoromethyl-benzoylamino)-benzamide] as the compound, how does the IC50 read?
Answer: 220 nM

Question: Which IC50 does the source give for O=C(Nc1ccc2ccccc2n1)c1cccc(NC(=O)c2c(Cl)cccc2Cl)c1 [Compound 40, 3-(2,6-Chloro-benzoylamino)-N-quinolin-2-yl-benzamide] here?
Answer: 800 nM

Question: How did the IC50 turn out when O=C(Nc1cccc(C(=O)NC2CCCCCC2)c1)c1cc(C(F)(F)F)cc(C(F)(F)F)c1 [Compound 54, N-(3-Cycloheptylcarbamoyl-phenyl)-3,5-bis-trifluoromethyl-benzamide] was run?
Answer: 1200 nM

Question: O=C(NC1CCCCCC1)c1cccc(NC(=O)c2ccccc2Cl)c1 [Compound 36, 3-(2-Chloro-benzoylamino)-N-cycloheptyl-benzamide] was tested. Which IC50 did it give?
Answer: 330 nM

Question: With O=C(Nc1ccc2ccccc2n1)c1cccc(NC(=O)c2ccccc2[N+](=O)[O-])c1 [Compound 53, 3-(2-Nitro-benzoylamino)-N-quinolin-2-yl-benzamide] as the compound, how does the IC50 read?
Answer: 500 nM

Question: For O=C(NC1CCCCCC1)c1cccc(NC(=O)c2ccccc2Br)c1 [Compound 68, 2-Bromo-N-(3-cycloheptylcarbamoyl-phenyl)-benzamide], which IC50 is on record?
Answer: 180 nM

Question: Which IC50 does the source give for Cc1cccc(CNC(=O)c2cccc(NC(=O)c3ccccc3C(F)(F)F)c2)c1C [Compound 139, N-(2,3-Dimethyl-benzyl)-3-(2-trifluoromethyl-benzoylamino)-benzamide] here?
Answer: 75 nM

Question: Which IC50 does the source give for O=C(Nc1ccc2ccccc2n1)c1cccc(NC(=O)c2ccccc2C(F)(F)F)c1 [Compound 43, 3-(2-Trifluoromethyl-benzoylamino)-N-quinolin-2-yl-benzamide] here?
Answer: 190 nM

Question: With O=C(Nc1cccc(C(=O)Nc2ccc3ccccc3n2)c1)c1ccccc1 [Compound 17, 3-Benzoylamino-N-quinolin-2-yl-benzamide] as the compound, how does the IC50 read?
Answer: 3500 nM

Question: O=C(NCc1ccccc1Br)c1cccc(NC(=O)c2ccccc2C(F)(F)F)c1 [Compound 135, N-(2-Bromo-benzyl)-3-(2-trifluoromethyl-benzoylamino)-benzamide] was tested. Which IC50 did it give?
Answer: 65 nM

Question: How did the IC50 turn out when O=C(Nc1nc2ccccc2[nH]1)c1cccc(NC(=O)c2ccccc2Cl)c1 [Compound 13, 3-(2-Chloro-benzoylamino)-N-(1H-benzimidazol-2-yl)-benzamide] was run?
Answer: 1300 nM

Question: For Cc1ccccc1C(=O)Nc1cccc(C(=O)NCc2cccc3ccccc23)c1 [Compound 110, N-{3-[(Naphthalen-1-ylmethyl)-carbamoyl]-phenyl}-2-methyl-benzamide], which IC50 is on record?
Answer: 330 nM

Question: With O=C(Nc1ccc2cccc(O)c2n1)c1cccc(NC(=O)c2ccccc2C(F)(F)F)c1 [Compound 140, N-(8-hydroxy-quinolin-2-yl)-3-(2-trifluoromethyl-benzoylamino)-benzamide] as the compound, how does the IC50 read?
Answer: 1900 nM

Question: With O=C(NC1CCCCCC1)c1cccc(NC(=O)c2ccccc2I)c1 [Compound 69, N-(3-Cycloheptylcarbamoyl-phenyl)-2-iodo-benzamide] as the compound, how does the IC50 read?
Answer: 260 nM
